Values quoted from earlier work, collected in article PMC4054929 (Bioorganic & medicinal chemistry, 2014).

Test system: PDE10A
Settings: unlabeled compounds; cited from earlier work

Structure (SMILES)	IC50
COc1cc2ccccc2nc1COc1ccc(-c2nn(C)cc2-c2ccncc2)cc1 [Compound 1]	0.4 ± 0.02 nM
COc1cc(COc2ccc(-c3nn(C)cc3-c3ccncc3)cc2)nc2ccccc12 [Compound 2]	0.28 ± 0.06 nM
COc1ccc2nc(COc3ccc(-c4nn(C)cc4-c4ccncc4)cc3)ccc2c1 [Compound 3]	1.82 ± 0.25 nM
